This note sets out measurements from patent US11725012B2, “Imidazo[1,5-a]pyrazine derivatives as PI3K δ inhibitors” (priority 2016, dated 2023).

Common to all, as to type: biochemical
The target in one assay is PI3K (p110β/p85α) (Homo sapiens, UniProt P42338). The experiment in a line: PI3Kβ ADP-Glo kinase assay. The conditions noted are these: read-out: PI3Kβ Enzyme activity IC50.
Assay [1] deals with recombinant PI3K (p110α/p85α) (Homo sapiens, UniProt P42336). Briefly: PI3Kα ADP-Glo kinase assay. The conditions noted are these: read-out: PI3Kα Enzyme activity IC50.
Chain of recombinant PI3K (p110α/p85α) (P42336 whole entry): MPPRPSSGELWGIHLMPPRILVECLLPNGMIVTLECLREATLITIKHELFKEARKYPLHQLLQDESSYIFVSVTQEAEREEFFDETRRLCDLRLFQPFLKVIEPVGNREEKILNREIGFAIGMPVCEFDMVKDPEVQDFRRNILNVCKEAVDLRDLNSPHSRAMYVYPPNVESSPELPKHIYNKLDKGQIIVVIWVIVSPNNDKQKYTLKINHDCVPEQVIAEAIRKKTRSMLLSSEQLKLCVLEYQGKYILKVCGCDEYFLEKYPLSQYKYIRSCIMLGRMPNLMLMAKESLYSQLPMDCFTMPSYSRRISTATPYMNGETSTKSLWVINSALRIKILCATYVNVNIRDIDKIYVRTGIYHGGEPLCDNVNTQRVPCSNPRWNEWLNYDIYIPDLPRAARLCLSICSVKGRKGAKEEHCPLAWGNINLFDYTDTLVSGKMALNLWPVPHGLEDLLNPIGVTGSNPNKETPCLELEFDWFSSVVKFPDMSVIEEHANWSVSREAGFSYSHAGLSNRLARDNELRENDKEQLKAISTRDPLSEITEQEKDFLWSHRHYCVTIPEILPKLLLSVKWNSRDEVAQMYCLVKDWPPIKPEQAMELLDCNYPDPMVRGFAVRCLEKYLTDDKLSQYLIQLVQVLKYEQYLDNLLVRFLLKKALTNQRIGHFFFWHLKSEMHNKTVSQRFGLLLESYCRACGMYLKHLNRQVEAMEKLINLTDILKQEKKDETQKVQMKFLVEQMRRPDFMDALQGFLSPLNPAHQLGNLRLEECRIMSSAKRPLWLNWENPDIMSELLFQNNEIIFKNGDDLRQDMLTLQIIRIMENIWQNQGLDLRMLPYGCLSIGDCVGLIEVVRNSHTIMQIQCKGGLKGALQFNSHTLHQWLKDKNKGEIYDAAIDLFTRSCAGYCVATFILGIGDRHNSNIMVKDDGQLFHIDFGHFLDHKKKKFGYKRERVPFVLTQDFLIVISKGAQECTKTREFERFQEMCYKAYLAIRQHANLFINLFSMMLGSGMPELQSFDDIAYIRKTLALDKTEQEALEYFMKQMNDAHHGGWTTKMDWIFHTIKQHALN
Chain of recombinant PI3K (p110α/p85α) (P27986 whole entry partner): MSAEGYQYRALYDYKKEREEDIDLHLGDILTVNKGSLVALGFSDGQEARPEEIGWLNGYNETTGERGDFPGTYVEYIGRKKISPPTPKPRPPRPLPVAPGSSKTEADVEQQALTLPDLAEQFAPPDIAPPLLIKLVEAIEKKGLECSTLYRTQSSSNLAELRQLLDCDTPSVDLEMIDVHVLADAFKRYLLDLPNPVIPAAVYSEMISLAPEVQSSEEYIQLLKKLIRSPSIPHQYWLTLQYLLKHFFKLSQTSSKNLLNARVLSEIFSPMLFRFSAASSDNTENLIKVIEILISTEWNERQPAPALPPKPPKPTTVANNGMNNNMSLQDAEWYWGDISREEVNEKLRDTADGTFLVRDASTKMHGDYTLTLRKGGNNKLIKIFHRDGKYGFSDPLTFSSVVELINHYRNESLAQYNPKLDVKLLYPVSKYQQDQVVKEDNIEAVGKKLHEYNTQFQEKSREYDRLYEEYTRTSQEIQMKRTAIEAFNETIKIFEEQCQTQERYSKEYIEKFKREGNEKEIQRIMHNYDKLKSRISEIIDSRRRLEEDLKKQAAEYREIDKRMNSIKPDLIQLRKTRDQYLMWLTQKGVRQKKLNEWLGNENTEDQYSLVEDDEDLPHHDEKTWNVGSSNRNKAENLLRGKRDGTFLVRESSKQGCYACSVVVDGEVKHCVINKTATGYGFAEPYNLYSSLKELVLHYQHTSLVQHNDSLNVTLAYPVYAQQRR
The target of the next assay is PI3K (p110γ) (Homo sapiens, UniProt P48736). The experiment in a line: PI3Kγ ADP-Glo kinase assay. The conditions noted are these: read-out: PI3Kγ Enzyme activity IC50.
Chain of PI3K (p110γ) (P48736 whole entry): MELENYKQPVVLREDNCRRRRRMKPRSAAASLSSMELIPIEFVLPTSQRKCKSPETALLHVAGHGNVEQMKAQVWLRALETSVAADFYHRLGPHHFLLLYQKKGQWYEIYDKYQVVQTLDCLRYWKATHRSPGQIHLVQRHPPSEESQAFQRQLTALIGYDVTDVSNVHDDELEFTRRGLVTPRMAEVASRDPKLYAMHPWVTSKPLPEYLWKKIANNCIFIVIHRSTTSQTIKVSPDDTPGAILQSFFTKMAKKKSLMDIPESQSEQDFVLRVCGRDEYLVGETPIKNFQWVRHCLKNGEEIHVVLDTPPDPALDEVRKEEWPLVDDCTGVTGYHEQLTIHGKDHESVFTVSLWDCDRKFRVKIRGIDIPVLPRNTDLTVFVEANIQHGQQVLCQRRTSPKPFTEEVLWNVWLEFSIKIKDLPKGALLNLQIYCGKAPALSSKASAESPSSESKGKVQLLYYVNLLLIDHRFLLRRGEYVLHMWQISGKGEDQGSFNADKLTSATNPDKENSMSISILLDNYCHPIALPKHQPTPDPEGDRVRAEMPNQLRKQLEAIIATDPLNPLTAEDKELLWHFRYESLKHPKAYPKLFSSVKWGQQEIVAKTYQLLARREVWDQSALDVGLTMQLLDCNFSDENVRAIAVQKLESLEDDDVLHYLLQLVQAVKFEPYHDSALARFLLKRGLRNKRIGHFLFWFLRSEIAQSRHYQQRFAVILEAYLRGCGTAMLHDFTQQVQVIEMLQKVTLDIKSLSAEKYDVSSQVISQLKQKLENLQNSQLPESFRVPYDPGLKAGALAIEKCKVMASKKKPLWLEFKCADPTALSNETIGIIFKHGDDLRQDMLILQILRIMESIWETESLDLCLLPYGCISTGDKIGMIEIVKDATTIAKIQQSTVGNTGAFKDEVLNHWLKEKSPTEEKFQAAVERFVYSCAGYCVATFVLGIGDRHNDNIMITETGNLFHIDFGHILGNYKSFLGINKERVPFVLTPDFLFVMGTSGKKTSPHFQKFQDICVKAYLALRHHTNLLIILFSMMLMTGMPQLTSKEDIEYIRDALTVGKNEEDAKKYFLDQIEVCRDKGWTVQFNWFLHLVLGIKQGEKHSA
Assay [2] deals with recombinant PI3K (p110δ/p85α) (Homo sapiens, UniProt O00329). Briefly: PI3Kδ ADP-Glo kinase assay. The conditions noted are these: read-out: PI3Kδ Enzyme activity IC50. The method in brief:
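ADP-Glo luminescence with recombinant p110δ/p85α and lipid kinase substrate. Compound serial dilutions preincubated 0.5 hr, ATP added, reaction 1 hr at room temperature, then ATP depletion and detection steps. IC50 from a four-parameter logistic fit of residual activity.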

Chain of PI3K (p110β/p85α) (P42338 whole entry): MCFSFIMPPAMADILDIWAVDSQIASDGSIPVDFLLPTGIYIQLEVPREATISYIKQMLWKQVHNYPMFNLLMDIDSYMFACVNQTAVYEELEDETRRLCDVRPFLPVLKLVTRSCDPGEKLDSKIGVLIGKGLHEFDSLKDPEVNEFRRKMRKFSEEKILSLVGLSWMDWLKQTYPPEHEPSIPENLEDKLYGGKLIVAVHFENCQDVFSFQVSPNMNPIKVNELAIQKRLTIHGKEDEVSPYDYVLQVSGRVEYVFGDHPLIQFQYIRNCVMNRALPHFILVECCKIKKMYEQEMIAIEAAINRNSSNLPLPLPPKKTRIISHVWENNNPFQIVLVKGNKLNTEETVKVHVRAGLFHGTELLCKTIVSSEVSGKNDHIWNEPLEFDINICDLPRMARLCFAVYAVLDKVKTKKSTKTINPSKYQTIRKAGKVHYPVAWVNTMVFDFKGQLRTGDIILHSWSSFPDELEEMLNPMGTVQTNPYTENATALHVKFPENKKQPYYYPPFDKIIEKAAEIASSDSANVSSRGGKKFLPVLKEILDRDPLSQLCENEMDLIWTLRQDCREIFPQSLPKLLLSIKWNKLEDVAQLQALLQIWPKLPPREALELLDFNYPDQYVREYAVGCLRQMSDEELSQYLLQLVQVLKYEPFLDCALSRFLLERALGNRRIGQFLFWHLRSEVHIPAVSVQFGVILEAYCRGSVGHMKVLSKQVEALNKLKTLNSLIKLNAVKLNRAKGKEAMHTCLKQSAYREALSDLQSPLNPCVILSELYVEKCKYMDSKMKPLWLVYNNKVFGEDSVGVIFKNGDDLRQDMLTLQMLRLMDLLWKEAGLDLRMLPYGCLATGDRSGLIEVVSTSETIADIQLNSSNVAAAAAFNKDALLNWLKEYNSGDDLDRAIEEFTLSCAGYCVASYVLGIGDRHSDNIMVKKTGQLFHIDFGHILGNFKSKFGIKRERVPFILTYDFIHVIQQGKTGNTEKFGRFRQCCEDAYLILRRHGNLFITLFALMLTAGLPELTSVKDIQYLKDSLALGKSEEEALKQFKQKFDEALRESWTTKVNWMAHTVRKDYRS
Chain of PI3K (p110β/p85α) (P27986 whole entry partner): as the sequence (P27986 whole entry partner) above
Chain of recombinant PI3K (p110δ/p85α) (O00329 whole entry): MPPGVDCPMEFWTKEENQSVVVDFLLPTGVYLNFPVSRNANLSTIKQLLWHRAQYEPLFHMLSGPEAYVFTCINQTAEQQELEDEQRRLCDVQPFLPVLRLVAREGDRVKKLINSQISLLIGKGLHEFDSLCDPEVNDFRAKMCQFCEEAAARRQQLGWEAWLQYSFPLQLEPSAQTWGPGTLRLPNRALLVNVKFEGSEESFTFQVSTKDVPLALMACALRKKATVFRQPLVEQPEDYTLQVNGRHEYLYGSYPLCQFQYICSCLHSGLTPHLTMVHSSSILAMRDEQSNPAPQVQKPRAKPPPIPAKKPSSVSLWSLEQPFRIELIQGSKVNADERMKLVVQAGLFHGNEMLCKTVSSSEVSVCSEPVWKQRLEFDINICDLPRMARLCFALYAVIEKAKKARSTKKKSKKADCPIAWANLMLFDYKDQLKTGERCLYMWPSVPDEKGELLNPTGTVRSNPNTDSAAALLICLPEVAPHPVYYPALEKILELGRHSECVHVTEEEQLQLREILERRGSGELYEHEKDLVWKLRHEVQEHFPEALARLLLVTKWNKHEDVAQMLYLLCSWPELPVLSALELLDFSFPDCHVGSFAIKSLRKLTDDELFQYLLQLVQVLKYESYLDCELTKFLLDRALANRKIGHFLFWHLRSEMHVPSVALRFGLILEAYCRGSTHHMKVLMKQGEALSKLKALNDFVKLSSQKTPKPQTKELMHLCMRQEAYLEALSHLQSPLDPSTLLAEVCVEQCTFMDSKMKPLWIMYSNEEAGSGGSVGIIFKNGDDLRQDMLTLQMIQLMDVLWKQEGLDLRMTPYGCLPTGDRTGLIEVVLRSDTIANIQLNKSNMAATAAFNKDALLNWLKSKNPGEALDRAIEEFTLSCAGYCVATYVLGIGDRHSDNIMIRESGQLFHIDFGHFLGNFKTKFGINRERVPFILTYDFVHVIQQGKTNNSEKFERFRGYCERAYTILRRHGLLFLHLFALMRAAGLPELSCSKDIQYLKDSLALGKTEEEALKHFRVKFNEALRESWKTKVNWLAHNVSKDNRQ
Chain of recombinant PI3K (p110δ/p85α) (P27986 whole entry partner): as the sequence (P27986 whole entry partner) above

Take `CCOc1c(C(C)c2nc(Br)c3c(N)nccn23)cc(Cl)c(C)c1-c1cncc(C(F)(F)F)c1` (stereo not shown) [Compound 39, 1-bromo-3-(1-(5-chloro-2-ethoxy-4-methyl-3-(5-(trifluoromethyl)pyridin-3-yl)phenyl)ethyl)imidazo[1,5-a]pyrazin-8-amine]: the IC50 on PI3K (p110β/p85α) turned out to be 2 µM; in assay [1], 3.2 µM; at PI3K (p110γ) it was 1.6 µM; in assay [2], 0.0057 µM.

As to `CC(C)Oc1c(C(C)c2nc(Cl)c3c(N)nccn23)cc(Cl)c(F)c1-c1ccc(C(F)(F)F)nc1` (stereo not shown) [Compound 40, 1-chloro-3-(1-(5-chloro-4-fluoro-2-isopropoxy-3-(6-(trifluoromethyl)pyridin-3-yl)phenyl)ethyl)imidazo[1,5-a]pyrazin-8-amine], the IC50 at PI3K (p110β/p85α) was over 50 µM; in assay [1], over 50 µM; at PI3K (p110γ) it was over 50 µM; in assay [2], 0.0055 µM.

`CCOc1c(C(C)c2nc(Cl)c3c(N)nccn23)cc(Cl)c(F)c1-c1ccc(C(F)(F)F)nc1` (stereo not shown) [Compound 41, 1-chloro-3-(1-(5-chloro-2-ethoxy-4-fluoro-3-(6-(trifluoromethyl)pyridin-3-yl)phenyl)ethyl)imidazo[1,5-a]pyrazin-8-amine]: the IC50 at PI3K (p110β/p85α) is 3.1 µM; in assay [1], 2.7 µM; on PI3K (p110γ), 2.1 µM; in assay [2], 0.0032 µM.

For `CCOc1c([C@H](C)c2nc(Cl)c3c(N)nccn23)cc(Cl)c(F)c1-c1ccc(C(F)(F)F)nc1` [Compound 41A], the IC50 at PI3K (p110β/p85α) is 1.2 µM; in assay [1] it was 2.2 µM; at PI3K (p110γ) it was 0.73 µM; in assay [2], 0.0021 µM.

In the case of `CCCOc1c(C(C)c2nc(Cl)c3c(N)nccn23)cc(Cl)c(F)c1-c1ccc(C(F)(F)F)nc1` (stereo not shown) [Compound 42, 1-chloro-3-(1-(5-chloro-4-fluoro-2-propoxy-3-(6-(trifluoromethyl)pyridin-3-yl)phenyl)ethyl)imidazo[1,5-a]pyrazin-8-amine], the IC50 on PI3K (p110β/p85α) is over 50 µM; in assay [1] it was over 50 µM; on PI3K (p110γ) it was 1.6 µM; in assay [2], 0.0074 µM.

Regarding `CCCOc1c([C@H](C)c2nc(Cl)c3c(N)nccn23)cc(Cl)c(F)c1-c1ccc(C(F)(F)F)nc1` [Compound 42A], the IC50 on PI3K (p110β/p85α) is 2.2 µM; in assay [1], 26 µM; on PI3K (p110γ), 0.81 µM; in assay [2], 0.0041 µM.

In the case of `CCOc1c(C(C)c2nc(Cl)c3c(N)nccn23)cc(Cl)c(F)c1-c1ccc(C(F)(F)F)nc1OC` (stereo not shown) [Compound 43, 1-chloro-3-(1-(5-chloro-2-ethoxy-4-fluoro-3-(2-methoxy-6-(trifluoromethyl)pyridin-3-yl)phenyl)ethyl)imidazo[1,5-al]pyrazin-8-amine], the 50% inhibitory concentration (IC50) was over 50 µM on PI3K (p110β/p85α), over 50 µM in assay [1], over 50 µM on PI3K (p110γ) and 0.059 µM in assay [2].

`CCOc1c([C@H](C)c2nc(Cl)c3c(N)nccn23)cc(Cl)c(F)c1-c1ccc(C(F)(F)F)nc1OC` [Compound 43A]: the IC50 on PI3K (p110β/p85α) was over 50 µM; in assay [1], over 50 µM; on PI3K (p110γ), over 50 µM; in assay [2], 0.028 µM.

With `CCOc1c(C(C)c2nc(Cl)c3c(N)nccn23)cc(Cl)c(C)c1-c1ccc(OC)cc1` (stereo not shown) [Compound 45, 1-chloro-3-(1-(5-chloro-2-ethoxy-4′-methoxy-6-methyl-[1,1′-biphenyl]-3-yl)ethyl)imidazo[1,5-a]pyrazin-8-amine], the IC50 on PI3K (p110β/p85α) came to 0.93 µM; in assay [1], 1.1 µM; on PI3K (p110γ) it was 1.2 µM; in assay [2], 0.017 µM.

Turning to `CCOc1c(C(C)c2nc(Cl)c3c(N)nccn23)cc(Cl)c(C)c1C1CNC(=O)C1` (stereo not shown) [Compound 46, 4-(3-(1-(8-amino-1-chloroimidazo[1,5-a]pyrazin-3-yl)ethyl)-5-chloro-2-ethoxy-6-methylphenyl)pyrrolidin-2-one], the IC50 at PI3K (p110β/p85α) stood at 0.47 µM; in assay [1], 5.6 µM; on PI3K (p110γ), 0.92 µM; in assay [2] it was 0.0007 µM.

Take `CC(C)Oc1c(C(C)c2nc(Cl)c3c(N)nccn23)cc(Cl)c(F)c1C1CNC(=O)C1` (stereo not shown) [Compound 48, 4-(3-(1-(8-amino-1-chloroimidazo[1,5-a]pyrazin-3-yl)ethyl)-5-chloro-6-fluoro-2-isopropoxyphenyl)pyrrolidin-2-one]: the IC50 on PI3K (p110β/p85α) worked out at 0.58 µM; in assay [1], 0.54 µM; at PI3K (p110γ), 0.53 µM; in assay [2], 0.00042 µM.

`CCOc1cc(C)c(Cl)cc1C(C)c1nc(Br)c2c(N)nccn12` (stereo not shown) [Compound 50, 1-bromo-3-(1-(5-chloro-2-ethoxy-4-methylphenyl)ethyl)imidazo[1,5-a]pyrazin-8-amine]: the IC50 was found to be 0.67 µM on PI3K (p110β/p85α), 36 µM in assay [1], 2.6 µM at PI3K (p110γ) and 0.017 µM in assay [2].

For `CCOc1c(C(C)c2nc(Cl)c3c(N)nccn23)cc(Cl)c(C)c1N1CCOCC1` (stereo not shown) [Compound 51, 1-chloro-3-(1-(5-chloro-2-ethoxy-4-methyl-3-morpholinophenyl)ethyl)imidazo[1,5-a]pyrazin-8-amine], the IC50 on PI3K (p110β/p85α) amounted to 2.7 µM; in assay [1], 2.9 µM; at PI3K (p110γ), 1.7 µM; in assay [2], 0.0016 µM.

As to `CC(c1cc(Cl)c(C#N)c(=O)n1-c1ccccc1)n1cc(Br)c2c(N)ncnc21` (stereo not shown) [Compound 54, 6-(1-(4-amino-5-bromo-7H-pyrrolo[2,3-d]pyrimidin-7-yl)ethyl)-4-chloro-2-oxo-1-phenyl-1,2-dihydropyridine-3-carbonitrile], the IC50 at PI3K (p110β/p85α) was determined as 1.7 µM; in assay [1], 29 µM; on PI3K (p110γ), 4.2 µM; in assay [2], 0.015 µM.

Turning to `COc1cc(C(C)n2cc(Br)c3c(N)ncnc32)n(-c2ccccc2)c(=O)c1C#N` (stereo not shown) [Compound 57, 6-(1-(4-amino-5-bromo-7H-pyrrolo[2,3-d]pyrimidin-7-yl)ethyl)-4-methoxy-2-oxo-1-phenyl-1,2-dihydropyridine-3-carbonitrile], the IC50 came to 1.24 µM at PI3K (p110β/p85α), 83 µM in assay [1], 1.9 µM on PI3K (p110γ) and 0.02 µM in assay [2].

`Cc1nc([C@@H](C)c2cc(Cl)c(F)c(-c3ccc(C(F)(F)F)nc3)c2OC(C)C)n2ccnc(N)c12` [Compound 58, (S)-3-(1-(5-chloro-4-fluoro-2-isopropoxy-3-(6-(trifluoromethyl)pyridin-3-yl)phenyl)ethyl)-1-methylimidazo[1,5-a]pyrazin-8-amine]: the IC50 on PI3K (p110β/p85α) was found to be 17 µM; in assay [1], 14 µM; on PI3K (p110γ) it was 13 µM; in assay [2], 0.0056 µM.

In the case of `Cc1nc(C(C)c2cc(Cl)c(F)c(-c3ccc(C#N)nc3)c2OC(C)C)n2ccnc(N)c12` (stereo not shown) [Compound 59, 5-(3-(1-(8-amino-1-methylimidazo[1,5-a]pyrazin-3-yl)ethyl)-5-chloro-6-fluoro-2-isopropoxyphenyl)picolinonitrile], the IC50 on PI3K (p110β/p85α) turned out to be 3.5 µM; in assay [1] it was 10 µM; at PI3K (p110γ), 6.3 µM; in assay [2], 0.0025 µM.

`Cc1nc([C@@H](C)c2cc(Cl)c(F)c(-c3ccc(C(N)=NO)nc3)c2OC(C)C)n2ccnc(N)c12` [Compound 60]: the IC50 was found to be 4.2 µM at PI3K (p110β/p85α), 4.3 µM in assay [1], 2.8 µM on PI3K (p110γ) and 0.0016 µM in assay [2].

In the case of `Cc1nc([C@@H](C)c2cc(Cl)c(F)c(-c3ccc(C(=O)N4CCC(O)CC4)nc3)c2OC(C)C)n2ccnc(N)c12` [Compound 61, (S)-(5-(3-(1-(8-amino-1-methylimidazo[1,5-a]pyrazin-3-yl)ethyl)-5-chloro-6-fluoro-2-isopropoxyphenyl)pyridin-2-yl)(4-hydroxypiperidin-1-yl)methanone], the IC50 amounted to 6.1 µM on PI3K (p110β/p85α), 2.9 µM in assay [1], 3.8 µM on PI3K (p110γ) and 0.00058 µM in assay [2].

With `Cc1nc([C@@H](C)c2cc(Cl)c(F)c(-c3ccc(C(=O)NCCO)nc3)c2OC(C)C)n2ccnc(N)c12` [Compound 62, (S)-5-(3-(1-(8-amino-1-methylimidazo[1,5-a]pyrazin-3-yl)ethyl)-5-chloro-6-fluoro-2-isopropoxyphenyl)-N-(2-hydroxyethyl)picolinamide], the IC50 turned out to be 3.6 µM on PI3K (p110β/p85α), 5.2 µM in assay [1], 2.6 µM on PI3K (p110γ) and 0.00082 µM in assay [2].

As for `Cc1nc([C@@H](C)c2cc(Cl)c(F)c(-c3ccc(C(=O)N4CC(O)C4)nc3)c2OC(C)C)n2ccnc(N)c12` [Compound 63, (S)-(5-(3-(1-(8-amino-1-methylimidazo[1,5-a]pyrazin-3-yl)ethyl)-5-chloro-6-fluoro-2-isopropoxyphenyl)pyridin-2-yl)(3-hydroxyazetidine-1-yl)methanone], the IC50 worked out at 2.3 µM on PI3K (p110β/p85α), 2.6 µM in assay [1], 2.4 µM on PI3K (p110γ) and 0.00056 µM in assay [2].

`Cc1nc([C@@H](C)c2cc(Cl)c(F)c(-c3ccc(C(=O)N4CC[C@@H](O)C4)nc3)c2OC(C)C)n2ccnc(N)c12` [Compound 64, (5-(3-((S)-1-(8-amino-1-methylimidazo[1,5-a]pyrazin-3-yl)ethyl)-5-chloro-6-fluoro-2-isopropoxyphenyl)pyridin-2-yl)((R)-3-hydroxypyrrolidin-1-yl)methanone]: the IC50 on PI3K (p110β/p85α) turned out to be 1.6 µM; in assay [1], 1.4 µM; at PI3K (p110γ) it was 2.1 µM; in assay [2], 0.00037 µM.
